{
  "source": "paper PMC9673142",
  "about": "“1,3-Diarylpyrazolyl-acylsulfonamides Target HadAB/BC Complex in Mycobacterium tuberculosis” (ACS Infectious Diseases, 2022)",
  "key": {"[1]": {"system": "EthA mutant (C253R) of Mtb", "details": "cited from earlier work"}, "Mtb/pNIP40b-hadABC": {"system": "Mtb/pNIP40b-hadABC", "assay": "microbe, parasite or virus in culture", "format": "cell-based", "details": "Mycobacterium tuberculosis, read-out: MIC Mtb/pNIP40b-hadABC"}, "[2]": {"system": "compound 1-resistant Mtb mutants (SRM59, Rv0637/hadC:K157R)", "format": "cell-based, Mycobacterium tuberculosis"}},
  "data": [
    {"smiles": "CC(=O)Nc1ccc(/C=N/NC(N)=S)cc1", "note": "[TAC, thioacetazone, reference compound]", "values": [
      {"measurement": "resistance of EthA mutant (C253R)", "setting": "[1]", "value": "4–8 folds"}
    ]},
    {"smiles": "O=c1[nH]nc(CCc2cn(-c3ccc(Br)cc3)nc2-c2ccc(Cl)cc2)o1", "note": "[Compound 12]", "values": [
      {"measurement": "MIC", "setting": "Mtb/pNIP40b-hadABC", "value": 12.5, "unit": "µM"}
    ]},
    {"smiles": "CS(=O)(=O)c1nnc(Cc2cn(-c3ccc(Cl)cc3)nc2-c2ccncc2)o1", "note": "[Compound 13]", "values": [
      {"measurement": "MIC", "setting": "Mtb/pNIP40b-hadABC", "value": 1.9, "unit": "µM"}
    ]},
    {"smiles": "O=C(O)CCc1cn(-c2ccc(Br)cc2)nc1-c1ccc(Cl)cc1", "note": "[Compound 10]", "values": [
      {"measurement": "MIC", "setting": "Mtb/pNIP40b-hadABC", "value": 3, "unit": "µM"}
    ]},
    {"smiles": "CS(=O)(=O)NC(=O)NCc1cn(-c2ccc(C(F)(F)F)nc2)nc1-c1ccncc1", "note": "[Compound 11]", "values": [
      {"measurement": "MIC", "setting": "Mtb/pNIP40b-hadABC", "value": "> 40", "unit": "µM"}
    ]},
    {"smiles": "CCc1c(COC(=O)NS(C)(=O)=O)c(-c2ccc(Cl)cc2)nn1-c1ccc(Cl)cc1", "note": "[Compound 15]", "values": [
      {"measurement": "MIC", "setting": "Mtb/pNIP40b-hadABC", "value": 7.8, "unit": "µM"}
    ]},
    {"smiles": "CC(C)CCOc1ccc(NC(=S)Nc2ccc(OCCC(C)C)cc2)cc1", "note": "[ISO, isoxyl, reference compound]", "values": [
      {"measurement": "resistance of EthA mutant (C253R)", "setting": "[1]", "value": "4–8 folds"}
    ]},
    {"smiles": "CS(=O)(=O)NC(=O)CCc1cn(-c2ccc(Br)cc2)nc1-c1ccncc1", "note": "[Compound 1]", "values": [
      {"measurement": "Compound 1 MIC, SRM59-1", "setting": "[2]", "value": "50 to 100", "unit": "µM"},
      {"measurement": "Compound 1 MIC, SRM59-2", "setting": "[2]", "value": "50 to 100", "unit": "µM"},
      {"measurement": "Compound 1 MIC, SRM59-3", "setting": "[2]", "value": "50 to 100", "unit": "µM"},
      {"measurement": "change in MIC against EthA mutant (C253R)", "setting": "[1]", "value": "no change"}
    ]},
    {"smiles": "CS(=O)(=O)NC(=O)CCc1cn(-c2ccc(Cl)cc2)nc1-c1ccc(Cl)cc1", "note": "[Compound 2]", "values": [
      {"measurement": "MIC", "setting": "Mtb/pNIP40b-hadABC", "value": 2.5, "unit": "µM"},
      {"measurement": "change in MIC against EthA mutant (C253R)", "setting": "[1]", "value": "no change"}
    ]}
  ]
}
